For this test, the system named is T cells isolated from mouse spleens. Briefly: T cell proliferation inhibition (CFSE flow cytometry, anti-CD3/anti-CD28 activation). Type of test: cell-based, C57BL/6 mice. The following applies: mouse spleen T cells, CD3/CD28 activated, cultured three days. The method, then:
To verify the T cell proliferation inhibitory effect of the compounds according to the present invention, the following experiment was performed based on flow cytometry analysis using carboxyfluorescein diacetate succinimidyl ester (CFSE), a fluorescent dye that binds to intracellular molecules via covalent bonds.
Spleens were extracted from 7-week-old C57BL/6 mice, ground, and then separated into single cells using a strainer ([…], SPL). Red blood cells were removed using ACK (Ammonium-Chloride-Potassium) lysis buffer to isolate white blood cells.
Finally, using a MACS Magnetic Stand and LS column, T cells were isolated from the spleen.
The T cells isolated from the spleen were resuspended in 1 mL of free medium (RPMI-1640+200 U/mL penicillin+200 μg/mL streptomycin), and 0.3 μL of CFSE (10 mM) was added. The mixture was incubated at 37° C. for 5 minutes.
Free medium (10 mL) was added to stop the reaction, and the cells were centrifuged to obtain the cell pellet.
RPMI 1640 medium containing 10% FBS, 100 U/mL penicillin, 100 μg/mL streptomycin, and resuspended the cells. The cells were then seeded into a 96-well plate at a density of 2×10^5 cells per well and activated with CD3 and CD28 antibodies ([…]) to activate T cells.
The compound diluted in DMSO was added at concentrations of 10 nM, 100 nM, 1 μM, […], 30 μM, and 50 µM, with three wells per concentration, and cultured at 37° C. and 5% CO2 for three days. The cells were then analyzed using a FACS Canto instrument.
The proliferation inhibition rate (%) was calculated using the following formula: […]
(Flow cytometry measures light scatter and fluorescence of single cells or particles in a stream.)

Molecules are shown by their SMILES.

Regarding `CC(C)(C)OC(=O)N1CCN(CCCCCCCCCCCCNC(=O)c2cccnc2N)CC1` [Compound 111, tert-butyl-4-(12-(2-aminonicotinamido)dodecyl) piperazine-1-carboxylate], the “Proliferation inhibition rate (%)” value reads like this: (10 nM) 0.00%; (100 nM) 100.00%; (1 μM) 100.00%; (10 μM) 100.00%; (30 μM) 100.00%; (50 μM) 100.00%.

Turning to `CC(C)(C)OC(=O)N[C@@H]1CCCN(CCCCCCCCCCCCNC(=O)c2cccnc2N)C1` [Compound 117, tert-butyl-(R)-(1-(12-(2-aminonicotinamido)dodecyl)piperidin-3-yl)carbamate], the inhibition at 0.01 µM (Mus musculus, T-cell, 72 h, 10 nM, read-out: Proliferation inhibition rate (%)) is -15.8%. Moreover, under “Mus musculus, T-cell, 72 h, 100 nM, read-out: Proliferation inhibition rate (%)”, the inhibition at 0.1 µM is 100%. Also, the inhibition at 1 µM (Mus musculus, T-cell, 72 h, 1 μM, read-out: Proliferation inhibition rate (%)) turned out to be 100%. Moreover, the inhibition at 10 µM (Mus musculus, T-cell, 72 h, 10 μM, read-out: Proliferation inhibition rate (%)) worked out at 100%. Moreover, the inhibition at 30 µM (Mus musculus, T-cell, 72 h, 30 μM, read-out: Proliferation inhibition rate (%)) worked out at 100%. The inhibition at 50 µM (Mus musculus, T-cell, 72 h, 50 μM, read-out: Proliferation inhibition rate (%)) was found to be 100%.

For `CN1CCN(CCCCCCCCCCCCNC(=O)c2cccnc2F)CC1` [Compound 121, 2-fluoro-N-(12-(4-methylpiperazin-1-yl)dodecyl) nicotinamide], the “Proliferation inhibition rate (%)” value worked out at 0.00% (10 nM); 0.00% (100 nM); 0.00% (1 μM); 30.00% (10 μM); 100.00% (30 μM); 100.00% (50 μM).

On to `Nc1ncccc1C(=O)NCCCCCCCCCCCCN1CC(F)(F)C1` [Compound 122, 2-Amino-N-(12-(3,3-difluoroazetidin-1-yl)dodecyl) nicotinamide], for which the “Proliferation inhibition rate (%)” value (10 nM) is reported as 0.00%; the “Proliferation inhibition rate (%)” value (100 nM) is given as 0.00%; the “Proliferation inhibition rate (%)” value (1 μM) is on record as 80.00%; the “Proliferation inhibition rate (%)” value (10 μM) stood at 100.00%; the “Proliferation inhibition rate (%)” value (30 μM) turned out to be 100.00%; the “Proliferation inhibition rate (%)” value (50 μM) stood at 100.00%.

`COC1CCN(CCCCCCCCCCCCNC(=O)c2cccnc2N)C1` (centres unmarked) [Compound 126, 2-amino-N-(12-(3-methoxypyrrolidin-1-yl)dodecyl) nicotinamide]: the “Proliferation inhibition rate (%)” value is, setting by setting: (10 nM, listed as K-PB-48, 0.01 µM) 0.00%; (100 nM) 100.00%; (1 μM) 100.00%; (10 μM) 100.00%; (30 μM) 100.00%; (50 μM) 100.00%.

On to `Nc1ncccc1C(=O)NCCCCCCCCCCCCN1CCOC1=O` [Compound 127, 2-amino-N-(12-(2-oxooxazolidin-3-yl)dodecyl) nicotinamide], for which the “Proliferation inhibition rate (%)” value stood at 100.00% (10 μM), 100.00% (30 μM) and 100.00% (50 μM).

Take `Nc1ncccc1C(=O)NCCCCCCCCCCCCNC1CCOC1` (centres unmarked) [Compound 128, 2-amino-N-(12-((tetrahydrofuran-3-yl)amino)dodecyl) nicotinamide]: the “Proliferation inhibition rate (%)” value by setting is: (100 nM) 100.00%; (1 μM) 100.00%; (10 μM) 100.00%; (30 μM) 100.00%; (50 μM) 100.00%.

Regarding `Nc1ncccc1C(=O)NCCCCCCCCCCCCN1CC=CC1` [Compound 129, 2-amino-N-(12-(2,5-dihydro-1H-pyrrol-1-yl)dodecyl) nicotinamide], the “Proliferation inhibition rate (%)” value reads like this: (10 nM) 0.00%; (100 nM) 90.00%; (1 μM) 100.00%; (10 μM) 100.00%; (30 μM) 100.00%; (50 μM) 100.00%.

(Values after US20260183303A1, “PDK1 REGULATORY COMPOUND AND COMPOSITION CONTAINING THE SAME” (PROVIBIO CO., LTD., priority 2024, published 2026).)
